Data taken from patent publication US20260078120A1, “SUBSTITUTED PYRIDOPYRIMIDINONES” (MIRATI THERAPEUTICS, INC., priority 2022, published 2026).

Tests used:
[1] = system: SKBR3 (PI3Kα wild type) cells; test: CellTiter-Glo 2.0 luminescent cell viability assay, 72 hours, SKBR3 cells; type: cell-based; conditions: Homo sapiens, SK-BR-3, 72 h, SKBR3 (PI3Kα wild type) cells, CellTiter-Glo, approximately 72 hours; read-out: SKBR3 (WT) Viability IC50
How it was run: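 Viability measured via CTG luminescence following roughly 72 hours of compound exposure at 37° C. Dosing used a 10 um starting concentration diluted 1:4 over 10 points; percent-of-vehicle data fitted with a variable-slope four-parameter model for IC50.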

[2] = system: T47D (PI3Kα H1047R mutant) cells; test: CellTiter-Glo 2.0 luminescent cell viability assay, 72 hours, T47D cells; type: cell-based; conditions: Homo sapiens, T47D, 72 h, T47D (PI3Kα H1047R mutant) cells, CellTiter-Glo, approximately 72 hours; read-out: T47D (H1047R mutant) Viability IC50
How it was run: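 Cells seeded at 1000 per well overnight were dosed with a 10-concentration, 1:4 series starting at 10 µM and incubated ~72 h at 37° C. Viability was read by CellTiter-Glo 2.0 luminescence after 30 min at room temperature. IC50 came from four-parameter fits of percent vehicle control.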

SMILES	IC50 [1]	IC50 [2]
Cc1cc([C@@H](C)Nc2ccccc2C(=O)O)c2nc(-c3cn(-c4ccc(C#N)cc4)cn3)cc(=O)n2c1 [Example 11-237, (R)-2-((1-(2-(1-(4-cyanophenyl)-1H-imidazol-4-yl)-7-methyl-4-oxo-4H-pyrido[1,2-a]pyrimidin-9-yl)ethyl)amino)benzoic acid]	> 10000 nM	1410 nM
Cc1cc([C@@H](C)Nc2ccccc2C(=O)O)c2nc(N3CC4(C3)CC3(CCC3)C4)c(C)c(=O)n2c1 [Example 11-26, (R)-2-((1-(2-(2-azadispiro[3.1.3^6.1^4]decan-2-yl)-3,7-dimethyl-4-oxo-4H-pyrido[1,2-a]pyrimidin-9-yl)ethyl)amino)benzoic acid]	> 10000 nM	216 nM
Cc1cc([C@@H](C)Nc2ccccc2C(=O)O)c2nc(NCC3CCOC3)c(C)c(=O)n2c1 (stereo partly drawn) [Example 11-197, 2-(((1R)-1-(3,7-dimethyl-4-oxo-2-(((tetrahydrofuran-3-yl)methyl)amino)-4H-pyrido[1,2-a]pyrimidin-9-yl)ethyl)amino)benzoic acid]	> 10000 nM	1290 nM
Cc1cc([C@@H](C)Nc2ccccc2C(=O)O)c2nc(N3CCN(c4ccccc4C)CC3)c(C)c(=O)n2c1 [Example 11-267, (R)-2-((1-(3,7-dimethyl-4-oxo-2-(4-(o-tolyl)piperazin-1-yl)-4H-pyrido[1,2-a]pyrimidin-9-yl)ethyl)amino)benzoic acid]	> 10000 nM	236 nM
Cc1cc([C@@H](C)Nc2ccccc2C(=O)O)c2nc(N3CCN(c4ccc(C(F)(F)F)cn4)CC3)c(C)c(=O)n2c1 [Example 11-434, (R)-2-((1-(3,7-dimethyl-4-oxo-2-(4-(5-(trifluoromethyl)pyridin-2-yl)piperazin-1-yl)-4H-pyrido[1,2-a]pyrimidin-9-yl)ethyl)amino)benzoic acid]	8310 nM	138 nM
Cc1cc([C@@H](C)Nc2ccccc2C(=O)O)c2nc(NCC3COC3)c(C)c(=O)n2c1 [Example 11-205, (R)-2-((1-(3,7-dimethyl-2-((oxetan-3-ylmethyl)amino)-4-oxo-4H-pyrido[1,2-a]pyrimidin-9-yl)ethyl)amino)benzoic acid]	> 10000 nM	1560 nM
Cc1cc(C(C)Nc2ccccc2C(=O)O)c2nc(N3CCN(c4ccc(C#N)cc4)CC3)cc(=O)n2c1 (centres unmarked) [Example 11-334, 2-((1-(2-(4-(4-cyanophenyl)piperazin-1-yl)-7-methyl-4-oxo-4H-pyrido[1,2-a]pyrimidin-9-yl)ethyl)amino)benzoic acid]	1270 nM	113 nM
Cc1cc([C@@H](C)Nc2ccc(Cl)nc2C(=O)O)c2nc(N3CCN(c4ccc(C#N)cc4C)CC3)c(C)c(=O)n2c1 [Example 11-133, (R)-6-chloro-3-((1-(2-(4-(4-cyano-2-methylphenyl)piperazin-1-yl)-3,7-dimethyl-4-oxo-4H-pyrido[1,2-a]pyrimidin-9-yl)ethyl)amino)picolinic acid]	10000 nM	174 nM
Cc1cc([C@@H](C)Nc2ccccc2C(=O)O)c2nc(N3CCn4ccnc4C3)c(C)c(=O)n2c1 [Example 11-429, (R)-2-((1-(2-(5,6-dihydroimidazo[1,2-a]pyrazin-7(8H)-yl)-3,7-dimethyl-4-oxo-4H-pyrido[1,2-a]pyrimidin-9-yl)ethyl)amino)benzoic acid]	> 10000 nM	3140 nM
Cc1cc([C@@H](C)NC(=O)C2(C(=O)O)CCC2)c2nc(N3CCCCC3)c(C#N)c(=O)n2c1 [Example 11-317, (R)-1-((1-(3-cyano-7-methyl-4-oxo-2-(piperidin-1-yl)-4H-pyrido[1,2-a]pyrimidin-9-yl)ethyl)carbamoyl)cyclobutane-1-carboxylic acid]	> 10000 nM	> 10000 nM
Cc1cc([C@@H](C)Nc2ccccc2C(=O)O)c2nc(N3CC4CCC3CC4O)c(C)c(=O)n2c1 (stereo partly drawn) [Example 11-30, 2-(((1R)-1-(2-(5-hydroxy-2-azabicyclo[2.2.2]octan-2-yl)-3,7-dimethyl-4-oxo-4H-pyrido[1,2-a]pyrimidin-9-yl)ethyl)amino)benzoic acid]	> 10000 nM	401 nM
Cc1cc([C@@H](C)Nc2ccccc2C(=O)O)c2nc(N3C4CCC3CC(F)(F)C4)c(C)c(=O)n2c1 [Example 11-189, 2-(((1R)-1-(2-(3,3-difluoro-8-azabicyclo[3.2.1]octan-8-yl)-3,7-dimethyl-4-oxo-4H-pyrido[1,2-a]pyrimidin-9-yl)ethyl)amino)benzoic acid]	> 10000 nM	261 nM
Cc1cc([C@@H](C)Nc2ccccc2C(=O)O)c2nc(N3CC4CC(C3)O4)c(C#N)c(=O)n2c1 [Example 11-322, 2-(((1R)-1-(2-(6-oxa-3-azabicyclo[3.1.1]heptan-3-yl)-3-cyano-7-methyl-4-oxo-4H-pyrido[1,2-a]pyrimidin-9-yl)ethyl)amino)benzoic acid]	> 10000 nM	711 nM
Cc1cc([C@@H](C)Nc2ccccc2C(=O)O)c2nc(N3CCN(c4ccccc4F)CC3)c(C)c(=O)n2c1 [Example 11-440, (R)-2-((1-(2-(4-(2-fluorophenyl)piperazin-1-yl)-3,7-dimethyl-4-oxo-4H-pyrido[1,2-a]pyrimidin-9-yl)ethyl)amino)benzoic acid]	> 10000 nM	252 nM
Cc1cc([C@@H](C)Nc2ccccc2C(=O)O)c2nc(N3CC(c4ccccc4)C3)c(C)c(=O)n2c1 [Example 11-18, (R)-2-((1-(3,7-dimethyl-4-oxo-2-(3-phenylazetidin-1-yl)-4H-pyrido[1,2-a]pyrimidin-9-yl)ethyl)amino)benzoic acid]	> 10000 nM	416 nM

Continued, values first:

IC50 [1]	IC50 [2]	SMILES
> 10000 nM	242 nM	Cc1cc([C@@H](C)Nc2ccccc2C(=O)O)c2nc(N3C[C@H](F)C[C@@H](F)C3)c(C#N)c(=O)n2c1 [Example 11-47, 2-(((R)-1-(3-cyano-2-((3R,5R)-3,5-difluoropiperidin-1-yl)-7-methyl-4-oxo-4H-pyrido[1,2-a]pyrimidin-9-yl)ethyl)amino)benzoic acid]
> 10000 nM	1180 nM	Cc1cc([C@@H](C)Nc2ccccc2C(=O)O)c2nc(N3CCN(c4cnn(C)c4)CC3)c(C#N)c(=O)n2c1 [Example 11-264, (R)-2-((1-(3-cyano-7-methyl-2-(4-(1-methyl-1H-pyrazol-4-yl)piperazin-1-yl)-4-oxo-4H-pyrido[1,2-a]pyrimidin-9-yl)ethyl)amino)benzoic acid]
5220 nM	60 nM	Cc1cc([C@@H](C)Nc2ccccc2C(=O)O)c2nc(N3CC(C)C(F)(F)C3)c(C)c(=O)n2c1 (stereo partly drawn) [Example 11-121, 2-(((1R)-1-(2-(3,3-difluoro-4-methylpyrrolidin-1-yl)-3,7-dimethyl-4-oxo-4H-pyrido[1,2-a]pyrimidin-9-yl)ethyl)amino)benzoic acid]
> 10000 nM	144 nM	COC1CCN(c2nc3c([C@@H](C)Nc4ccccc4C(=O)O)cc(C)cn3c(=O)c2C#N)CC1(F)F (stereo partly drawn) [Example 11-67, 2-(((1R)-1-(3-cyano-2-(3,3-difluoro-4-methoxypiperidin-1-yl)-7-methyl-4-oxo-4H-pyrido[1,2-a]pyrimidin-9-yl)ethyl)amino)benzoic acid]
> 10000 nM	103 nM	Cc1cc([C@@H](C)Nc2cccnc2C(=O)O)c2nc(N3CCC(F)(F)CC3)c(C#N)c(=O)n2c1 [Example 10-121, (R)-3-((1-(3-cyano-2-(4,4-difluoropiperidin-1-yl)-7-methyl-4-oxo-4H-pyrido[1,2-a]pyrimidin-9-yl)ethyl)amino)picolinic acid]
> 10000 nM	166 nM	CC(Nc1ccccc1C(=O)O)c1cc(C(F)F)cn2c(=O)c(C#N)c(N3CCC(F)(F)CC3)nc12 (centres unmarked) [Example 11-170, 2-((1-(3-cyano-7-(difluoromethyl)-2-(4,4-difluoropiperidin-1-yl)-4-oxo-4H-pyrido[1,2-a]pyrimidin-9-yl)ethyl)amino)benzoic acid]
> 10000 nM	473 nM	Cc1cc([C@@H](C)Nc2ccccc2C(=O)O)c2nc(N3CC[C@@H]3C(F)(F)F)c(C)c(=O)n2c1 [Example 11-98, 2-(((R)-1-(3,7-dimethyl-4-oxo-2-((R)-2-(trifluoromethyl)azetidin-1-yl)-4H-pyrido[1,2-a]pyrimidin-9-yl)ethyl)amino)benzoic acid]
> 10000 nM	255 nM	Cc1cc([C@@H](C)Nc2ccccc2C(=O)O)c2nc(N3CC(C(F)F)C3)c(C)c(=O)n2c1 [Example 11-105, (R)-2-((1-(2-(3-(difluoromethyl)azetidin-1-yl)-3,7-dimethyl-4-oxo-4H-pyrido[1,2-a]pyrimidin-9-yl)ethyl)amino)benzoic acid]
> 10000 nM	170 nM	Cc1cc([C@@H](C)Nc2ccccc2C(=O)O)c2nc(N3C[C@H]4CC[C@@H]3C4)c(C#N)c(=O)n2c1 [Example 11-294, 2-(((R)-1-(2-((1R,4S)-2-azabicyclo[2.2.1]heptan-2-yl)-3-cyano-7-methyl-4-oxo-4H-pyrido[1,2-a]pyrimidin-9-yl)ethyl)amino)benzoic acid]
> 10000 nM	176 nM	Cc1cc([C@@H](C)Nc2ccccc2C(=O)O)c2nc(NCC3(C(F)(F)F)CC3)c(C#N)c(=O)n2c1 [Example 11-159, (R)-2-((1-(3-cyano-7-methyl-4-oxo-2-(((1-(trifluoromethyl)cyclopropyl)methyl)amino)-4H-pyrido[1,2-a]pyrimidin-9-yl)ethyl)amino)benzoic acid]
